{"source": "patent US12421254B2", "about": "“KRAS modulators and uses thereof” (Quanta Therapeutics, Inc., priority 2023, dated 2025)", "key": {"[1]": {"target": "GST-tagged KRAS-G12D (2-169) (Homo sapiens, UniProt P01116, G12D)", "sequence (P01116 2-169 isoform P01116-2 G12D)": "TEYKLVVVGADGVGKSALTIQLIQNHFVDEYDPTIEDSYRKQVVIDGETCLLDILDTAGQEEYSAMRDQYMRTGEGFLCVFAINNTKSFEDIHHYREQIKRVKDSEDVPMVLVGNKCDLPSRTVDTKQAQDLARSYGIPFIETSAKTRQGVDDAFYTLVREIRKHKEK", "assay": "Nucleotide exchange assay (NEA), SOS-mediated, HTRF, KRAS G12D", "type": "biochemical", "settings": "Table 4; IC50 extracted at 30 min; 20 nM SOScat; read-out: NEA G12D IC50", "source_text": "(§1) This activity is tightly regulated by GTPase activating proteins (GAPs) and guanine nucleotide exchange factors (GEFs). GEFs, such as SOS1/2, activate Ras proteins by exchanging GDP for GTP, thus returning Ras to its active conformation (Simanshu, Nissley, & McCormick, 2017). […] Homogenous time resolved fluorescence (HTRF) was used to detect SOS-mediated binding of a fluorescent GTP analog, GTP-DY-647P1 (Jena Biosciences NU-820-647P1) to GST-tagged KRAS-G12D (2-169) or to GST-tagged KRAS-G12V (2-169, Reaction Biology, MSC-11-540).\n(§2) GST-tagged KRAS-G12D (2-169) and anti-GST MAb Tb Cryptate Gold (CisBio 61GSTTLB) were diluted into assay buffer (20 mM HEPES, pH 7.3, 150 mM NaCl, 5 mM MgCl2, 0.05% BSA 0.0025% NP40, 1 mM DTT) to prepare a 2.5× donor solution. 5× compound was added to the protein mixture and incubated for 1 h at RT. 2.5× acceptor solution containing SOS1cat (564-1049, Reaction Biology MSC-11-502) and GTP-DY-647P1 were then added to the donor KRAS mixture such that the final concentration of the reaction contained 0.25 nM GST-tagged KRAS-G12D (2-169), 20 nM SOScat, and 150 nM GTP-DY-647P1. The reaction was monitored using at RT with the Envision multimode plate reader (Ex/Em 337/665, […]) up to 90 minutes at 5 minute intervals. To monitor KRAS-G12V SOS-mediated nucleotide exchange, 80 nM SOS was added to reaction instead of 20 nM. All other components were the same as previously described. Data was blanked to reactions without SOS1 and % inhibition was calculated such that DMSO only =0% and blank=100%. Curve fitting was done using a 4 parameter fit. Reported IC50 values were extracted at 30 min and 90 min for the KRAS-G12D and KRAS-G12V assays, respectively.\nNEA KRAS G12D IC50 (uM) values of selected compounds are depicted in Table 2 with compounds having a value <0.01 uM as ++++; ≥0.01 uM to 0.1 uM as +++; ≥0.1 uM to 1 uM as ++; ≥1 uM to 20 uM as +; and ≥20 uM as NA."}, "[2]": {"target": "GST-tagged KRAS-G12V (2-169) (Homo sapiens, UniProt P01116, G12V)", "sequence (P01116 2-169 isoform P01116-2 G12V)": "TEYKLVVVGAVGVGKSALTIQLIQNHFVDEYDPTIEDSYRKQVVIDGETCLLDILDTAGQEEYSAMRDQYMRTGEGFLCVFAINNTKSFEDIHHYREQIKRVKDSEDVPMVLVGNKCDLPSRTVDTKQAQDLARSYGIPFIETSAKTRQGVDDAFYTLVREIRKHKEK", "assay": "Nucleotide exchange assay (NEA), SOS-mediated, HTRF, KRAS G12V", "type": "biochemical", "settings": "Table 4; IC50 extracted at 90 min; 80 nM SOS", "source_text": "as §1, §2"}}}
{"smiles": "CN(c1nc(OC[C@@]23CCCN2C[C@H](F)C3)nc(N2CC3(CCc4sc(N)c(C#N)c43)C2)n1)[C@@H]1CCC[C@@H]1O", "note": "(racemic) [Compound 92, 2-amino-1′-[4-[[(2R,8S)-2-fluoro-1,2,3,5,6,7-hexahydropyrrolizin-8-yl]methoxy]-6-[[rac-(1R,2S)-2-hydroxycyclopentyl]-methyl-amino]-1,3,5-triazin-2-yl]spiro[5,6-dihydrocyclopenta[b]thiophene-4,3′-azetidine]-3-carbonitrile]", "values": [{"measurement": "IC50", "setting": "[1]", "value": "0.1 to 1", "unit": "µM"}, {"measurement": "IC50", "setting": "[2]", "value": "0.1 to 1", "unit": "µM"}]}
{"smiles": "CN(c1nc(OCC2(CN3CCOCC3)CC2)nc(N2CC3(CCc4sc(N)c(C#N)c43)C2)n1)[C@@H]1COC[C@@H]1O", "note": "(racemic) [Compound 94, 2-amino-1′-[4-[[rac-(3R,4R)-4-hydroxytetrahydrofuran-3-yl]-methyl-amino]-6-[[1-(morpholinomethyl)cyclopropyl]methoxy]-1,3,5-triazin-2-yl]spiro[5,6-dihydrocyclopenta[b]thiophene-4,3′-azetidine]-3-carbonitrile]", "values": [{"measurement": "IC50", "setting": "[1]", "value": "1 to 20", "unit": "µM"}, {"measurement": "IC50", "setting": "[2]", "value": "0.1 to 1", "unit": "µM"}]}
{"smiles": "N#Cc1c(N)sc2c1C1(CC2)CN(c2nc(OC[C@@]34CCCN3C[C@H](F)C4)nc(N3CCCC(C#N)C(O)C3)n2)C1", "note": "(mixture of isomers) [Compound 96, 2-amino-1′-[4-(4-cyano-3-hydroxy-azepan-1-yl)-6-[[rac-(2R,8S)-2-fluoro-1,2,3,5,6,7-hexahydropyrrolizin-8-yl]methoxy]-1,3,5-triazin-2-yl]spiro[5,6-dihydrocyclopenta[b]thiophene-4,3′-azetidine]-3-carbonitrile]", "values": [{"measurement": "IC50", "setting": "[1]", "value": "0.1 to 1", "unit": "µM"}, {"measurement": "IC50", "setting": "[2]", "value": "0.01 to 0.1", "unit": "µM"}]}
{"smiles": "N#Cc1c(N)sc2c1C1(CC2)CN(c2nc(N[C@@H]3COC[C@@H]3O)nc(OC[C@@]34CCCN3C[C@H](F)C4)n2)C1", "note": "(racemic) [Compound 103, 2-amino-1′-[4-[[(2R,8S)-2-fluoro-1,2,3,5,6,7-hexahydropyrrolizin-8-yl]methoxy]-6-[[rac-(3R,4R)-4-hydroxytetrahydrofuran-3-yl]amino]-1,3,5-triazin-2-yl]spiro[5,6-dihydrocyclopenta[b]thiophene-4,3′-azetidine]-3-carbonitrile]", "values": [{"measurement": "IC50", "setting": "[1]", "value": "1 to 20", "unit": "µM"}, {"measurement": "IC50", "setting": "[2]", "value": "0.1 to 1", "unit": "µM"}]}
{"smiles": "CN(Cc1ccn[nH]1)c1nc(OC[C@@]23CCCN2C[C@H](F)C3)nc(N2CC3(CCc4sc(N)c(C#N)c43)C2)n1", "note": "(racemic) [Compound 105, 2-amino-1′-[4-[methyl(1H-pyrazol-5-ylmethyl)amino]-6-[[rac-(2R,8S)-2-fluoro-1,2,3,5,6,7-hexahydropyrrolizin-8-yl]methoxy]-1,3,5-triazin-2-yl]spiro[5,6-dihydrocyclopenta[b]thiophene-4,3′-azetidine]-3-carbonitrile]", "values": [{"measurement": "IC50", "setting": "[1]", "value": "1 to 20", "unit": "µM"}, {"measurement": "IC50", "setting": "[2]", "value": "0.1 to 1", "unit": "µM"}]}
{"smiles": "C[C@@]1(O)CCCN(c2nc(OC[C@@]34CCCN3C[C@H](F)C4)nc(N3CC4(C3)c3c(sc(N)c3C#N)CS4(=O)=O)n2)C1", "note": "(racemic) [Compound 113, 2-amino-5,5-dioxo-1′-[4-[[rac-(2R,8S)-2-fluoro-1,2,3,5,6,7-hexahydropyrrolizin-8-yl]methoxy]-6-[rac-(3R)-3-hydroxy-3-methyl-1-piperidyl]-1,3,5-triazin-2-yl]spiro[6H-thieno[3,4-b]thiophene-4,3′-azetidine]-3-carbonitrile]", "values": [{"measurement": "IC50", "setting": "[1]", "value": "0.1 to 1", "unit": "µM"}, {"measurement": "IC50", "setting": "[2]", "value": "0.1 to 1", "unit": "µM"}]}
{"smiles": "C[C@@]1(O)CCCN(c2nc(OC[C@]34CCCN3[C@H](COc3cc(C(F)(F)F)ncn3)CC4)nc(N3CC4(C3)SCc3sc(N)c(C#N)c34)n2)C1", "note": "(racemic) [Compound 252, 2-amino-1′-[4-[(3R)-3-hydroxy-3-methyl-1-piperidyl]-6-[[(3SR,8RS)-3-[[6-(trifluoromethyl)pyrimidin-4-yl]oxymethyl]-1,2,3,5,6,7-hexahydropyrrolizin-8-yl]methoxy]-1,3,5-triazin-2-yl]spiro[6H-thieno[3,4-b]thiophene-4,3′-azetidine]-3-carbonitrile]", "values": [{"measurement": "IC50", "setting": "[1]", "value": "< 0.01", "unit": "µM"}, {"measurement": "IC50", "setting": "[2]", "value": "< 0.01", "unit": "µM"}]}
